Laboratory results from US6683027B2, “Herbicidal mixtures” (BASF Aktienegesellschaft, priority 2000, dated 2004).

What was measured:
Assay type in all cases: in vivo
[1] = test system: Lamium purpureum; assay: greenhouse pre-emergence trial, percent damage vs untreated control 21 days after treatment; conditions: 3.75 g/ha, LAMPU, Example 1A
[2] = test system: Lolium perenne; assay: as above; conditions: 3.75 g/ha, LOLPE
[3] = test system: Papaver rhoeas; assay: as above; conditions: PAPRH
[4] = test system: Setaria viridis; assay: as above; conditions: SETVI, Example 1A
[5] = test system: Stellaria media; assay: as above; conditions: STEME
[6] = test system: Veronica persica; assay: as above; conditions: VERPE
[7] = test system: Matricaria inodora; assay: as above; conditions: 3.75 g/ha, MATIN, Example 2
[8] = test system: Alopecurus myosuroides; assay: greenhouse post-emergence trial, percent damage vs untreated control 21 days after treatment; conditions: ALOMY
Description: (§1) The trials are carried out under greenhouse conditions in pre- and post-emergence applications. The plant seeds are sown in pots containing a loamy sand soil (0.5 l). The herbicides are applied as single treatments, or in a combination comprising a compound of formula I and compound selected from group (2) as defined above, before or after emergence of weeds and crop. The herbicidal performance is assessed as percent damage in comparison to the untreated control plants. The assessment is done 21 days after the treatment. Wheat and barley are treated at the 3-4 leaf stage, the broad-leaf weeds at the 2-4 leaf stage and annual grasses at the 2-3 leaf stage.

[9] = test system: Apera spica-venti; assay: as above; conditions: APESV
Description: as §1

[10] = test system: Galium aparine; assay: as above; conditions: GALAP
Description: as §1

[11] = test system: Lamium purpureum; assay: as above; conditions: LAMPU
Description: as §1

[12] = test system: Lolium perenne; assay: as above; conditions: LOLPE
Description: as §1

[13] = test system: Matricaria inodora; assay: as above; conditions: MATIN
Description: as §1

[14] = test system: Papaver rhoeas; assay: as above; conditions: PAPRH, Example 1B
Description: as §1

[15] = test system: Setaria viridis; assay: as above; conditions: SETVI
Description: as §1

[16] = test system: Stellaria media; assay: as above; conditions: STEME
Description: as §1

[17] = test system: Veronica persica; assay: as above; conditions: 3.75 g/ha, VERPE, Example 1B
Description: as §1

Measured: Compound A alone (% control)

FC(F)(F)c1ccc(-c2nccc(Oc3cccc(C(F)(F)F)c3)n2)cc1 [Compound A, 4-(3-trifluoromethylphenoxy)-2-(4-trifluoromethylphenyl)-pyrimidine]
35%: [4]; 7.5 g/ha | [9]; 7.5 g/ha, Example 1B | [11]; 3.75 g/ha, Example 12 | [11]; 7.5 g/ha, Example 7 | [11]; 7.5 g/ha, Example 8
0%: [3]; 3.75 g/ha, Example 2 | [4]; 3.75 g/ha | [5]; 3.75 g/ha, Example 1A | [6]; 3.75 g/ha, Example 2 | [8]; 3.75 g/ha, Example 12 | [8]; 15 g/ha, Example 12 | [9]; 3.75 g/ha, Example 12 | [10]; 15 g/ha, Example 12 | [12]; 3.75 g/ha, Example 12 | [15]; 3.75 g/ha, Example 1B | [15]; 3.75 g/ha, Example 5 | [15]; 3.75 g/ha, Example 9 | [15]; 3.75 g/ha, Example 14
28%: [8]; 7.5 g/ha, Example 1B | [8]; 15 g/ha, Example 4 | [8]; 60 g/ha, Example 5 | [12]; 7.5 g/ha, Example 1B | [12]; 30 g/ha, Example 13 | [16]; 3.75 g/ha, Example 4
70%: [16]; 15 g/ha, Example 9 | [16]; 30 g/ha, Example 1B
63%: [3]; 3.75 g/ha, Example 1A | [12]; 60 g/ha, Example 13
65%: [12]; 30 g/ha, Example 7 | [14]; 7.5 g/ha
23%: [6]; 7.5 g/ha, Example 2 | [8]; 7.5 g/ha, Example 4 | [8]; 30 g/ha, Example 5 | [10]; 7.5 g/ha, Example 5 | [12]; 7.5 g/ha, Example 4 | [12]; 15 g/ha, Example 5 | [15]; 7.5 g/ha, Example 1B
10%: [1] | [5]; 7.5 g/ha, Example 1A | [8]; 3.75 g/ha, Example 1B | [8]; 30 g/ha, Example 12 | [9]; 3.75 g/ha, Example 7 | [9]; 3.75 g/ha, Example 8 | [9]; 7.5 g/ha, Example 13 | [9]; 15 g/ha, Example 14 | [10]; 3.75 g/ha, Example 5 | [12]; 3.75 g/ha, Example 1B | [16]; 3.75 g/ha, Example 1B
30%: [13]; 15 g/ha, Example 10 | [14]; 3.75 g/ha | [16]; 7.5 g/ha, Example 13
40%: [9]; 15 g/ha, Example 1B | [10]; 3.75 g/ha, Example 14 | [12]; 60 g/ha, Example 11
15%: [2]; Example 2 | [3]; 7.5 g/ha, Example 2 | [8]; 30 g/ha, Example 13 | [8]; 30 g/ha, Example 14 | [13]; 7.5 g/ha, Example 13 | [15]; 3.75 g/ha, Example 4 | [15]; 7.5 g/ha, Example 10
20%: [9]; 7.5 g/ha, Example 10 | [10]; 15 g/ha, Example 10 | [10]; 30 g/ha, Example 12 | [11]; 3.75 g/ha, Example 4 | [11]; 3.75 g/ha, Example 7 | [11]; 3.75 g/ha, Example 8
80%: [17]
58%: [15]; 15 g/ha, Example 5
50%: [7] | [8]; 30 g/ha, Example 4 | [9]; 7.5 g/ha, Example 4 | [9]; 15 g/ha, Example 10 | [11]; 15 g/ha, Example 7 | [11]; 15 g/ha, Example 8 | [12]; 15 g/ha, Example 1B
25%: [9]; 3.75 g/ha, Example 1B
8%: [8]; 15 g/ha, Example 5 | [8]; 15 g/ha, Example 13 | [15]; 7.5 g/ha, Example 5
43%: [8]; 60 g/ha, Example 13
60%: [5]; 15 g/ha, Example 1A | [6]; 15 g/ha, Example 2 | [12]; 30 g/ha, Example 6
13%: [6]; 3.75 g/ha, Example 1A | [10]; 3.75 g/ha, Example 10 | [13]; 7.5 g/ha, Example 10
5%: [2]; Example 1A | [5]; 7.5 g/ha, Example 2 | [8]; 7.5 g/ha, Example 13 | [9]; 7.5 g/ha, Example 14 | [13]; 3.75 g/ha, Example 10 | [15]; 7.5 g/ha, Example 9
68%: [9]; 30 g/ha, Example 5
48%: [13]; 15 g/ha, Example 9
45%: [8]; 15 g/ha, Example 1B | [16]; 15 g/ha, Example 1B
53%: [9]; 30 g/ha, Example 12
4%: [15]; 3.75 g/ha, Example 10
83%: [11]; 15 g/ha, Example 1B
55%: [10]; 60 g/ha, Example 10 | [11]; 7.5 g/ha, Example 12 | [15]; 15 g/ha, Example 1B
3%: [8]; 3.75 g/ha, Example 13 | [8]; 7.5 g/ha, Example 5
75%: [12]; 60 g/ha, Example 7 | [12]; 60 g/ha, Example 8
18%: [16]; 7.5 g/ha, Example 1B
33%: [6]; 7.5 g/ha, Example 1A | [8]; 60 g/ha, Example 14
